Reference: patent US9528092B2, “Methods of efficiently establishing induced pluripotent stem cells under hypoxic conditions” (Kyoto University, priority 2008, dated 2016)

System: four-factor transduced MEFs
Experiment: Flow cytometric analysis of Nanog-GFP-positive cells on day 9 posttransduction
Assay type: cell-based, mouse
Conditions: day 5 to day 9 posttransduction, flow cytometry on day 9, four factors alone 0.01%
Procedure: Mice having a Nanog reporter were used as an experimental system. The Nanog reporter used was prepared by inserting the enhanced green fluorescent protein (EGFP) and puromycin resistant genes into the Nanog locus of a BAC (bacterial artificial chromosome) purchased from BACPAC Resources [Okita K. et al., Nature 448, 313-317 (2007)]. The mouse Nanog gene is expressed specifically in pluripotent cells such as ES cells and early embryos. The mouse iPS cells that have become positive for this reporter are known to be nearly equivalent to ES cells in terms of differentiation potential. Mouse embryonic fibroblasts (MEFs) and tail-tip fibroblasts (TTFs) obtained from a Nanog reporter mouse having this Nanog reporter [Okita K. et al., Nature 448, 313-317 (2007)] were transfected by means of retroviruses to establish iPS cells, and colonies expressing EGFP from the Nanog reporter were counted to evaluate the efficiency of establishment of iPS cells.
To investigate whether GFP-positive cells were detected earlier or not, the four-factor transduced MEFs were cultivated under 20% oxygen or under 5% oxygen with or without 2 mM valproic acid (VPA) from day 5 to day 9 posttransduction, and were subjected to flow cytometric analysis on day 9. Retroviral expression of four factors induced 0.01% of the cells to become GFP-positive on day 9 posttransduction. […]

CCCC(CCC)C(=O)O [VPA, valproic acid]
percentage of GFP-positive cells (2 mM VPA, 20% oxygen): 0.48%
percentage of GFP-positive cells (co-treatment with hypoxia (5% oxygen) and 2 mM VPA): 2.28%
